Laboratory results published in patent US7105620B2, “3,4-alkylenedioxy-thiophene copolymers” (Agfa Gevaert, priority 2001, dated 2006).
Values after ≈ are worked out from the molar mass of the structure shown.

Assay: Solubility of 3,4-alkylenedioxythiophene compounds in water at 25° C.
Type: physicochemical
Details: visually adjudged dissolved; for solubility: thermodynamic from solid
Procedure: The solubility of the 3,4-alkylenedioxythiophene compounds was determined by adding a particular quantity thereof with stirring to sufficient water so that all the monomer was visually adjudged to have dissolved.

Row | solubility [µg/mL] | Molecule | Solubility in water at 25° C.
1 | ~10000 (≈ 58.1 mM) | OCC1COc2cscc2O1 (stereo not drawn) [M1, (2,3-dihydro-thieno[3,4-b][1,4]dioxin-2-yl)-methanol] | 
2 | ~8200 (≈ 47.6 mM) | OC1COc2cscc2OC1 [M2, 3,4-dihydro-2H-thieno[3,4-b][1,4]dioxepin-3-ol] | 
3 | ~2700 (≈ 11.7 mM) | O=C(O)COCC1COc2cscc2O1 (stereo not drawn) [M3, (2,3-dihydro-thieno[3,4-b][1,4]dioxin-2-yl-methoxy)-acetic acid] | 
4 | ~4500 (≈ 14.1 mM) | COCCOCCOCCOCC1COc2cscc2O1 (stereo not drawn) [M4, 2-{2-[2-(2-methoxy-ethoxy)-ethoxy]-ethoxymethyl}-2,3-dihydro-thieno[3,4-b][1,4]dioxine] | 
5 |  | Polyethylene Oxide Substituted (2,3-dihydro-thieno[3,4-b][1,4]dioxin-2-yl)-methanol [M5] | ca. >128 g/L

Row | Molecule | solubility [µg/mL] | Solubility in water at 25° C.
6 | O=S(=O)([O-])CCCCOCC1COc2cscc2O1.[Na+] (stereo not drawn) [M6, 4-(2,3-dihydro-thieno[3,4-b][1,4]dioxin-2-ylmethoxy)-butane-1-sulfonic acid sodium salt] | ~167000 | 
